Read-outs that look alike come from different tables or passages of the source. Where a SMILES comes first, the peptide text is derived from it. Bridges are numbered along the chain shown (N, C = ends). Where only a bound is given, the exact number is not on record here.

The target of assay [1] is T1, hNaV1.7 (Homo sapiens, UniProt Q15858). Description: cell-based. The assay is classed as cell-based.
A further assay concerns the target hNaV1.1 (Homo sapiens, UniProt P35498). The assay is described as follows: cell-based. The assay is classed as cell-based.
In assay [2] the target is T1, hNaV1.7. The assay is classed as cell-based. To be noted: SEM.
A further assay deals with hNaV1.5 (Homo sapiens, UniProt Q14524). The assay is described as follows: cell-based. The assay is classed as cell-based. To be noted: for IC50: N = 3-4, read-out: IC50 ± SEM, NaV1.5.
The target in another assay is hNaV1.3 (Homo sapiens, UniProt Q9NY46). Description: cell-based. To be noted: N = 3-4; SEM; read-out: IC50 ± SEM, NaV1.3.
Another assay deals with hNaV1.6 (Homo sapiens, UniProt Q9UQD0). The assay is described as follows: cell-based. The settings on record: N = 4; SEM; read-out: IC50 ± SEM, NaV1.6.
Another assay concerns the target hNaV1.2 (Homo sapiens, UniProt Q99250). The assay is described as follows: cell-based. The settings on record: N = 3-6; SEM; read-out: IC50 ± SEM, NaV1.2.
Another assay has as its target hNaV1.4 (Homo sapiens, UniProt P35499). The assay is described as follows: cell-based. The assay is classed as cell-based. To be noted: for IC50: N = 4, read-out: IC50 ± SEM, NaV1.4.
The test system of assay [3] is endogenous K+ currents from non-transfected HEK293 cells. The assay is classed as cell-based.
The test system of assay [4] is rKV2.1/hNaV1.1 chimera containing the paddles S3–S4 from DII from NaV1.1. In kind it is cell-based.
Where [5] appears, read: N = 3-4, SEM, read-out: IC50 ± SEM, NaV1.7.
The mark [6] stands for this setting: N = 4-5, SEM, read-out: IC50 ± SEM, NaV1.1.

Chain of hNaV1.4 (P35499 whole entry, looked up): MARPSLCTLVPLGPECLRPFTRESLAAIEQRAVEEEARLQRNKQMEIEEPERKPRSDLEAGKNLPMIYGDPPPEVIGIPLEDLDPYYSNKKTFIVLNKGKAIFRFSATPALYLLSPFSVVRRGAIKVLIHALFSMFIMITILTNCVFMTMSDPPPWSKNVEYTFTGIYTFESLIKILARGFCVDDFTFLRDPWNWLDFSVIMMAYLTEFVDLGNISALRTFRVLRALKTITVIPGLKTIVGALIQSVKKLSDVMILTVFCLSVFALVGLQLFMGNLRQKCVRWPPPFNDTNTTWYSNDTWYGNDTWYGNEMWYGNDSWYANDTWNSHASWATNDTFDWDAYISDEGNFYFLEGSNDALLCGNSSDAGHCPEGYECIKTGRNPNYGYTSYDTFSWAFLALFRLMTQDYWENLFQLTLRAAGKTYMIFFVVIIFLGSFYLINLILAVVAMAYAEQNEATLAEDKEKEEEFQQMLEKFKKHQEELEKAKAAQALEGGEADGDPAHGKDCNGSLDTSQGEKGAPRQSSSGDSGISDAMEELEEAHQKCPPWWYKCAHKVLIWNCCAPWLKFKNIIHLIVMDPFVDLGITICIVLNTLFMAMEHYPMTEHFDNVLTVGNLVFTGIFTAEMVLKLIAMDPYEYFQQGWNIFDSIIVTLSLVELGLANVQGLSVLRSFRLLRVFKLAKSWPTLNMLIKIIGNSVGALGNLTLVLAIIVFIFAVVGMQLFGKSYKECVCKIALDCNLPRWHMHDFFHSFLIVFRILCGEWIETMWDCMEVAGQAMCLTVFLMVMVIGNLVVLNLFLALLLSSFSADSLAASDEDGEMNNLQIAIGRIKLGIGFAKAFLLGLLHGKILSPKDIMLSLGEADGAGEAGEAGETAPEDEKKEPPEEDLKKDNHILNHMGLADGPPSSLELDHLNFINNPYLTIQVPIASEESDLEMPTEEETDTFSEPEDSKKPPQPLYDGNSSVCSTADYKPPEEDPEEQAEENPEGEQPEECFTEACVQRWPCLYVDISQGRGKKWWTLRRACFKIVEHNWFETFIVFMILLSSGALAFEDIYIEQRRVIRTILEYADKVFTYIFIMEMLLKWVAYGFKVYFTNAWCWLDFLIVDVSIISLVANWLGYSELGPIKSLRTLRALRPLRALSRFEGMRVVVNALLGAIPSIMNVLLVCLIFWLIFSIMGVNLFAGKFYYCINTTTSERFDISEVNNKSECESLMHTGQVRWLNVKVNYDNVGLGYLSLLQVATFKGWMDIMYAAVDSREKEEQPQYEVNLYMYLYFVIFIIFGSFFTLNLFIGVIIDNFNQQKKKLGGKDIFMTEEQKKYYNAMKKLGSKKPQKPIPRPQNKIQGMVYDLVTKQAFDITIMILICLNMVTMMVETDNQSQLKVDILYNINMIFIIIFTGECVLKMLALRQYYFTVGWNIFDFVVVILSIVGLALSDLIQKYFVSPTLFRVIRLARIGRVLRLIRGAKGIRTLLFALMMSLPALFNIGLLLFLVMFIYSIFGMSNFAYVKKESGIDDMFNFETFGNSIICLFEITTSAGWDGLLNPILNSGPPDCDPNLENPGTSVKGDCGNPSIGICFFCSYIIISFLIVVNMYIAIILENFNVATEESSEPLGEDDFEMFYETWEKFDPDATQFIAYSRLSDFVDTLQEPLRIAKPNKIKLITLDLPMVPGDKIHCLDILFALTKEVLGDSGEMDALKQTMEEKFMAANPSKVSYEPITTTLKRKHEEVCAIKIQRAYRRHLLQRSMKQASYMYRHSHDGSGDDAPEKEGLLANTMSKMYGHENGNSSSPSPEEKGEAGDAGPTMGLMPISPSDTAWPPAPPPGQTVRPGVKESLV
T1 sequence (Q15858 whole entry, looked up): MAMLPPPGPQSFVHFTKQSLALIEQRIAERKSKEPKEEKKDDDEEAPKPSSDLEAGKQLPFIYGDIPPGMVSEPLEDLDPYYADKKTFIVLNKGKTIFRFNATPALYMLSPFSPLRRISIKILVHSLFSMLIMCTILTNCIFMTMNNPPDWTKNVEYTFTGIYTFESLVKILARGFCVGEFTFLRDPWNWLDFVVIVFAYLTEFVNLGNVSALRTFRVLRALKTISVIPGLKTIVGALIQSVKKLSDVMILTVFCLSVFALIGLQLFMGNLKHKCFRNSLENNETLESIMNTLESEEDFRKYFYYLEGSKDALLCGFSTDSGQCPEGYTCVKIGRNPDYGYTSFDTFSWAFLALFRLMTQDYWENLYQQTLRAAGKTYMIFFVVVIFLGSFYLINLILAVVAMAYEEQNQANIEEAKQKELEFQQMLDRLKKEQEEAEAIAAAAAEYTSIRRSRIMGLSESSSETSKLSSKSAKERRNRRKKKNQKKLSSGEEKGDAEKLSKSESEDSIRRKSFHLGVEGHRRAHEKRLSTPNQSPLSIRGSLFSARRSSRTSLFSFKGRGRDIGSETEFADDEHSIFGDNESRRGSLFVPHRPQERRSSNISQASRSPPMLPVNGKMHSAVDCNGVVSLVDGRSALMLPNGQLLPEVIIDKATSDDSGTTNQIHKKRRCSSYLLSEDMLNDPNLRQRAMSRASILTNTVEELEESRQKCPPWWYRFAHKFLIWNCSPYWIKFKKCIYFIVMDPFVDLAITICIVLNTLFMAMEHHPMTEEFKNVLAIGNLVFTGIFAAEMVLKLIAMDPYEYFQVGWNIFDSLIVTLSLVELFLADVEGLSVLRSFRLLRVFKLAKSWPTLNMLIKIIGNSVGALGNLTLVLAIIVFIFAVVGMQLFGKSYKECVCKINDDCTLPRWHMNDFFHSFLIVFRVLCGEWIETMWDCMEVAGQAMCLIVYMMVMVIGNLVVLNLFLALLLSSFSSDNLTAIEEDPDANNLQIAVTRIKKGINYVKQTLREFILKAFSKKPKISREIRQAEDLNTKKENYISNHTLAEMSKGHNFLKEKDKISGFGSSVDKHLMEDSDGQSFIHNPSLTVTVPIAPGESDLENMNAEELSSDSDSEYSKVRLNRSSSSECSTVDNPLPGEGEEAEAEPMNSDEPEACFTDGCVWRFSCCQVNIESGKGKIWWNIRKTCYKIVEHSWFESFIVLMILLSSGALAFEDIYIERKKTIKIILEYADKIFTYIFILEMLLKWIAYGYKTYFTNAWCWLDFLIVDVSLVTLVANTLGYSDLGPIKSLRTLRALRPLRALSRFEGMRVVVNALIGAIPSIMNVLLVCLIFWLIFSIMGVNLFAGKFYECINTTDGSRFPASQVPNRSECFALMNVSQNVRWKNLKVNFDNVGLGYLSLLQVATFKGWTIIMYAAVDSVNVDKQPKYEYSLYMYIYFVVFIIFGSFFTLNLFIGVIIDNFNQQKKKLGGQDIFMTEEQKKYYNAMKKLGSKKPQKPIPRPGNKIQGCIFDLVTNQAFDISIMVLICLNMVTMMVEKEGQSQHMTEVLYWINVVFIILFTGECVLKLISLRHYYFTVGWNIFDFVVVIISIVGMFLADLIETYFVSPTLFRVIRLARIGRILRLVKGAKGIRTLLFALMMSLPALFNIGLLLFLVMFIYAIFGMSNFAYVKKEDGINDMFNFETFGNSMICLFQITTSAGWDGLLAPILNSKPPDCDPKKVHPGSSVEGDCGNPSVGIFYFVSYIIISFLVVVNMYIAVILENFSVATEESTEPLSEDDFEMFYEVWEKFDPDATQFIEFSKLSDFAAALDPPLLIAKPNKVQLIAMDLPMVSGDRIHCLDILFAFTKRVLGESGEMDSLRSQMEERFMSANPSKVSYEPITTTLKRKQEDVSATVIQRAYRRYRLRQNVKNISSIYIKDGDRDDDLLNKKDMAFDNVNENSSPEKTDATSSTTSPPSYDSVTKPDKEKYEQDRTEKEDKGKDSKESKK

`CSCC[C@@H]1NC(=O)CNC(=O)[C@H](CC(C)C)NC(=O)[C@@H](NC(=O)[C@H](CC(=O)O)NC(=O)[C@H](CC(=O)O)NC(=O)CN)CSSC[C@@H]2NC(=O)[C@@H]3CSSC[C@@H](C(=O)N[C@@H](CCCCN)C(=O)N[C@@H](C)C(=O)N[C@@H](CCC(N)=O)C(=O)N[C@@H](CC(C)C)C(=O)N[C@@H](Cc4c[nH]c5ccccc45)C(=O)O)NC(=O)[C@H](Cc4c[nH]c5ccccc45)NC(=O)[C@H](CCC(N)=O)NC(=O)[C@H](CC(=O)O)NC(=O)[C@H](CCCCN)NC(=O)[C@H](CCCNC(=N)N)NC(=O)[C@H](CO)NC(=O)[C@H](CSSC[C@H](NC(=O)[C@H](CO)NC(=O)[C@H](CO)NC(=O)[C@H](Cc4ccccc4)NC1=O)C(=O)N[C@@H](CC(=O)O)C(=O)N1CCC[C@H]1C(=O)N[C@@H](CC(N)=O)C(=O)N[C@@H](CC(N)=O)C(=O)N[C@@H](CC(=O)O)C(=O)N[C@@H](CCCCN)C(=O)N3)NC(=O)[C@H](CCCCN)NC(=O)[C@H](CCCNC(=N)N)NC(=O)[C@H](CC(N)=O)NC(=O)[C@@H]1CCCN1C2=O` [Peptide Y32A] (H-GDDCLGMFSSCDPNNDKCCPNRKCSRKDQWCKAQLW-OH; disulfide 4-19, 11-24, 18-31): the IC50 on hNaV1.7 [1] and against hNaV1.1 was over 1000 nM throughout.
As to `CC[C@H](C)[C@@H]1NC(=O)CNC(=O)[C@H](CC(C)C)NC(=O)[C@@H](NC(=O)CNC(=O)CN)CSSC[C@@H]2NC(=O)[C@@H]3CSSC[C@@H](C(=O)N[C@@H](CCCCN)C(=O)N[C@@H](Cc4c[nH]c5ccccc45)C(=O)N[C@@H](CCCCN)C(=O)N[C@@H](CC(C)C)C(=O)N[C@@H](Cc4c[nH]c5ccccc45)C(=O)O)NC(=O)[C@H](Cc4c[nH]c5ccccc45)NC(=O)[C@H](CCCNC(=N)N)NC(=O)[C@H](Cc4c[nH]cn4)NC(=O)[C@H](CCCCN)NC(=O)[C@H](CCCCN)NC(=O)[C@H](CO)NC(=O)[C@H](CSSC[C@H](NC(=O)[C@H](CO)NC(=O)[C@H](CO)NC(=O)[C@H](Cc4ccccc4)NC1=O)C(=O)N[C@@H](CC(=O)O)C(=O)N1CCC[C@H]1C(=O)N[C@@H](CCC(=O)O)C(=O)N[C@@H](CC(N)=O)C(=O)N[C@@H](CC(=O)O)C(=O)N[C@@H](CCCCN)C(=O)N3)NC(=O)[C@H](C(C)C)NC(=O)[C@H](CCCNC(=N)N)NC(=O)[C@H](CC(N)=O)NC(=O)[C@H](Cc1ccc(O)cc1)NC2=O` [Tap1a-OPT1] (H-GGCLGIFSSCDPENDKCCYNRVCSKKHRWCKWKLW-OH; disulfide 3-18, 10-23, 17-30), the “Kon observed, hNaV1.7” value at hNaV1.7 [2] is 8.60 ± 1.7 × 10^−3 s^−1. Further, the IC50 (in general, the point on the concentration scale where inhibition reaches its midpoint) on hNaV1.5 is over 1000 nM; on hNaV1.3 it was 6 ± 0.5 nM; on hNaV1.6, 4.6 ± 2.3 nM; at hNaV1.7 [1] (setting [5]), 3 ± 0.7 nM; at hNaV1.2 it was 5 ± 1 nM; at hNaV1.4 (SEM), 100 ± 19 nM. The IC50 at hNaV1.1 (setting [6]) stood at 17 ± 3 nM.
With `CC[C@H](C)[C@@H]1NC(=O)CNC(=O)[C@H](CC(C)C)NC(=O)[C@@H](NC(=O)CNC(=O)CN)CSSC[C@@H]2NC(=O)[C@@H]3CSSC[C@@H](C(=O)N[C@@H](CCCCN)C(=O)N[C@@H](Cc4c[nH]c5ccccc45)C(=O)N[C@@H](CCCCN)C(=O)N[C@@H](CC(C)C)C(=O)N[C@@H](Cc4c[nH]c5ccccc45)C(=O)O)NC(=O)[C@H](Cc4c[nH]c5ccccc45)NC(=O)[C@H](CCCNC(=N)N)NC(=O)[C@H](Cc4c[nH]cn4)NC(=O)[C@H](CCCCN)NC(=O)[C@H](CCCCN)NC(=O)[C@H](CO)NC(=O)[C@H](CSSC[C@H](NC(=O)[C@H](CO)NC(=O)[C@H](CO)NC(=O)[C@H](C)NC1=O)C(=O)N[C@@H](CC(=O)O)C(=O)N1CCC[C@H]1C(=O)N[C@@H](CCC(=O)O)C(=O)N[C@@H](CC(N)=O)C(=O)N[C@@H](CC(=O)O)C(=O)N[C@@H](CCCCN)C(=O)N3)NC(=O)[C@H](C(C)C)NC(=O)[C@H](CCCNC(=N)N)NC(=O)[C@H](CC(N)=O)NC(=O)[C@H](Cc1ccc(O)cc1)NC2=O` [Tap1a-OPT2] (H-GGCLGIASSCDPENDKCCYNRVCSKKHRWCKWKLW-OH; disulfide 3-18, 10-23, 17-30), the “inhibition of NaV1.5, in words” value on hNaV1.5 is recorded as “did not significantly inhibit”. The IC50 at hNaV1.5 is over 1000 nM; on hNaV1.3, 96 ± 9 nM; on hNaV1.6 it was 75 ± 11 nM; on hNaV1.7 [1] (setting [5]), 35 ± 2 nM; on hNaV1.2 it was 43 ± 5 nM; at hNaV1.4, over 1000 nM. The IC50 at hNaV1.1 (setting [6]) is 54 ± 9 nM. For the same compound, the “loss of activity for NaV1.7 compared to Tap1a-OPT1” value on hNaV1.7 [1] is 2 fold. Further, the “inhibition of NaV1.4, in words” value against hNaV1.4 was “did not significantly inhibit”. The “loss of activity for NaV1.4 compared to Tap1a-OPT1” value at hNaV1.4 is “at least 10 fold”.
For the compound `COC(=O)C1=C(C)NC(C)=C(C(=O)OC)C1c1ccccc1[N+](=O)[O-]` [nifedipine], the “effect on endogenous potassium currents of non-transfected HEK293 cells” value in assay [3] is reported as “inhibited”. Moreover, the “effect on potassium currents of cells transfected with the chimera KV2.1/NaV1.1 VSDII” value in [4] is recorded as “sensitive”.
